Data published in patent EP3818828A1 (priority 2019, dated 2021).
≈ marks a conversion by molar mass, not a printed value. Read-outs that look alike come from different tables or passages of the source.

Key:
Assay type in all cases: cell-based
Phytophthora infestans [1] = details: Phytophthora infestas; 1 mg/mL
[2] = system: Botryosphaeria berengeriana; experiment: Ex vivo mycelial growth inhibition, growth rate method; details: 1 mg/mL
Description: (§1) 3-(3',4'-methylenedioxy phenyl)-N-n-propyl acrylamide (at a purity of 99%), 3-(3',4'-methylenedioxy phenyl)-piperidine acrylate (at a purity of 99%), the control agents, 96.5% of chlorothalonil technical (non-systemic broad-spectrum fungicide), 97.2% of carbendazim technical (systemic broad-spectrum fungicide), 97.0% of procymidone technical (systemic fungicide), 96.0% of dimethomorphtechnical ((E,Z)-4-[3-(4-chlorphenyl)3-(3,4-dimethoxy phenyl)acryloyl]morpholine, systemic fungicide), 97.0% of azoxystrobin technical (systemic broad-spectrum fungicide).
(§2) The inhibition of samples for testing on the mycelial growth of plant pathogenic fungi for testing is determined with a growth rate method. 3-(3',4'-methylenedioxy phenyl)-N-n-propyl acrylamide, 3-(3',4'-methylenedioxy phenyl)-piperidine acrylate and five control agents are dissolved with dimethyl sulfoxide (DMSO), then formulated at 5-7 concentrations of different gradients for test following the trial test results, with the same concentration of DMSO as the control solvent, each treatment in triplicate. Fungal cakes with a diameter of 4 mm are taken from the edge of the colony, inoculated into the center of a PDA plate containing different agents of different concentrations and the DMSO control, with one piece of fungal cake inoculated in each plate (with a diameter of […]), and incubated in a constant temperature incubator at a temperature of 22±1.5°C. 7 days later (10-20 days may be needed for some pathogenic fungi), the diameter of the colony is measured with a cross over method according to the mycelial growth profile of the control pathogenic fungi, then the inhibition rate of mycelial growth is calculated.
(§3) The computational formula is as below: the inhibition rate of mycelial growth (%) = [(the diameter of the control colony - the diameter of the treated colony)/the diameter of the control colony] × 100.
(§4) The inhibition results of each agent at a concentration of 1 mg/mL on the mycelial growth of plant pathogenic fungi are shown in Tables 1 and 2.

[3] = system: Botryosphaeriana berengeriana; experiment: as above; details: 1 mg/mL
Description: as §1, §2, §3, §4

Botrytis cinerea [4] = experiment: as above; details: 1 mg/mL
Description: as §1, §2, §3, §4

C. gossypii = experiment: as above; details: 1 mg/mL
Description: as §1, §2, §3, §4

Colletotrichum capsici [5] = experiment: as above; details: 1 mg/mL
Description: as §1, §2, §3, §4

Coniella diplodiella = experiment: as above; details: 1 mg/mL
Description: as §1, §2, §3, §4

Exserohilum turcicum [6] = experiment: as above; details: 1 mg/mL
Description: as §1, §2, §3, §4

F. oxysporum f. sp. lini = experiment: as above; details: 1 mg/mL
Description: as §1, §2, §3, §4

[7] = system: F. oxysporum f. sp. vasinfectum; experiment: as above; details: 1 mg/mL
Description: as §1, §2, §3, §4

F. verticillioide = experiment: as above; details: 1 mg/mL
Description: as §1, §2, §3, §4

[8] = system: Gaeumannomyces graminis var. graminis and G. graminis var. tritici; experiment: as above; details: 1 mg/mL
Description: as §1, §2, §3, §4

Mycosphaerlla melonis = experiment: as above; details: 1 mg/mL
Description: as §1, §2, §3, §4

Phytophthora capsici = experiment: as above; details: Phytophthora capsici; 1 mg/mL
Description: as §1, §2, §3, §4

Pythium aphanidermatum = experiment: as above; details: 1 mg/mL
Description: as §1, §2, §3, §4

Rhizoctonia solani = experiment: as above; details: Rhizoctonia solani; 1 mg/mL
Description: as §1, §2, §3, §4

Sclerotinia sclerotiorum [9] = experiment: as above; details: 1 mg/mL
Description: as §1, §2, §3, §4

Thanatephorus cucumeris = experiment: as above; details: 1 mg/mL
Description: as §1, §2, §3, §4

Valsa mali [10] = experiment: as above; details: 1 mg/mL
Description: as §1, §2, §3, §4

Fusarium graminearum [11] = experiment: microbe, parasite or virus in culture
F. graminearum [12] = experiment: microbe, parasite or virus in culture
Pyricularia grisea = experiment: microbe, parasite or virus in culture
Phytophthora infestans [13] = experiment: microbe, parasite or virus in culture; details: 1 mg/mL
Botrytis cinerea [14] = experiment: Toxicity determination (EC50) on mycelial growth, growth rate method
Description: as §2
(§5) 3-(3',4'-methylenedioxy phenyl)-piperidine acrylate, the control agents 96.5% of chlorothalonil technical and 97.0% of procymidone technical. Agents for testing and the control agents chlorothalonil and procymidone are treated at 5-8 concentrations of different gradients on the basis of preliminary tests to ensure that the inhibition rates for treatments at all the concentrations are between 10% and 90%.
(§6) For specific determination methods, with reference to Embodiment 1. The concentration of active ingredients in the culture medium is used as the testing concentration to calculate the toxic regression equation (Y=bx+a) and the median inhibition concentration EC50, 95% confidence limit, and relative toxicity. Relative toxicity (compared to chlorothalonil) = EC50 of chlorothalonil / EC50 of 3-(3',4'-methylenedioxy phenyl)-piperidine acrylate, and relative toxicity (compared to procymidone) = EC50 of procymidone / EC50 of 3-(3',4'-methylenedioxy phenyl)-piperidine acrylate.

Colletotrichum capsici [15] = experiment: as above
Description: as §2, §5, §6

Exserohilum turcicum [16] = experiment: as above
Description: as §2, §5, §6

Sclerotinia sclerotiorum [17] = experiment: as above
Description: as §2, §5, §6

Valsa mali [18] = experiment: as above
Description: as §2, §5, §6

Fusarium graminearum [19] = experiment: microbe, parasite or virus in culture; remark: listed apart in the source
F. graminearum [20] = experiment: microbe, parasite or virus in culture; remark: listed apart in the source
Magnaporthe grisea = experiment: microbe, parasite or virus in culture
Phytophthora infestans [21] = experiment: microbe, parasite or virus in culture
[22] = EC50 of chlorothalonil / EC50 of agent
[23] = EC50 of procymidone / EC50 of agent
[24] = median inhibition concentration

SMILES: CC12CC1(C)C(=O)N(c1cc(Cl)cc(Cl)c1)C2=O (centres unmarked) [Procymidone, procymidone]
- Average Diameter of the Colony (Phytophthora infestans [1]): 0.80 cm
- Average Diameter of the Colony [2]: 0.15 cm
- inhibition at 1000 µg/mL [2]: 97.8%
- Average Diameter of the Colony [3]: 0.20 cm
- inhibition at 1000 µg/mL [3]: 96.5%
- Average Diameter of the Colony (Botrytis cinerea [4]): 1.74 cm
- inhibition at 1000 µg/mL (Botrytis cinerea [4]): 76.8%
- Average Diameter of the Colony (C. gossypii; C. gossypii): 1.62 cm
- inhibition at 1000 µg/mL (C. gossypii; Colletotrichum gossypii, C. cossypii, read-out: Inhibition Rate): 70%
- Average Diameter of the Colony (Colletotrichum capsici [5]): 1.19 cm
- inhibition at 1000 µg/mL (Colletotrichum capsici [5]; Colletotrichum truncatum): 82.5%
- Average Diameter of the Colony (Coniella diplodiella): 0.06 cm
- inhibition at 1000 µg/mL (Coniella diplodiella): 99.1%
- Average Diameter of the Colony (Exserohilum turcicum [6]): 0.24 cm
- inhibition at 1000 µg/mL (Exserohilum turcicum [6]): 96.1%
- Average Diameter of the Colony (F. oxysporum f. sp. lini): 6.33 cm
- inhibition at 1000 µg/mL (F. oxysporum f. sp. lini; Fusarium oxysporum): 29.7%
- Average Diameter of the Colony [7]: 2.57 cm
- inhibition at 1000 µg/mL ([7]; Fusarium oxysporum): 64.5%
- Average Diameter of the Colony (F. verticillioide): 2.57 cm
- inhibition at 1000 µg/mL (F. verticillioide): 24%
- Average Diameter of the Colony [8]: 2.16 cm
- inhibition at 1000 µg/mL [8]: 69.8%
- Average Diameter of the Colony (Mycosphaerlla melonis): 0.24 cm
- inhibition at 1000 µg/mL (Mycosphaerlla melonis): 97.2%
- Average Diameter of the Colony (Phytophthora capsici): 5.10 cm
- inhibition at 1000 µg/mL (Phytophthora capsici): 3.77%
- Average Diameter of the Colony (Pythium aphanidermatum): 6.20 cm
- inhibition at 1000 µg/mL (Pythium aphanidermatum): 7.46%
- Average Diameter of the Colony (Rhizoctonia solani): 0.00 cm
- inhibition at 1000 µg/mL (Rhizoctonia solani): 100%
- Average Diameter of the Colony (Sclerotinia sclerotiorum [9]): 0.00 cm
- inhibition at 1000 µg/mL (Sclerotinia sclerotiorum [9]): 100%
- Average Diameter of the Colony (Thanatephorus cucumeris): 0.54 cm
- inhibition at 1000 µg/mL (Thanatephorus cucumeris): 93.7%
- Average Diameter of the Colony (Valsa mali [10]): 0.83 cm
- inhibition at 1000 µg/mL (Valsa mali [10]; Cytospora mali): 89%
- Average Diameter of the Colony (Fusarium graminearum [11]; 1 mg/mL): 2.26 cm
- inhibition at 1000 µg/mL (Fusarium graminearum [11]; read-out: Inhibition Rate): 57.7%
- Average Diameter of the Colony (F. graminearum [12]; F. graminearum, 1 mg/mL): 3.57 cm
- inhibition at 1000 µg/mL (F. graminearum [12]; Fusarium graminearum, read-out: Inhibition Rate): 58.5%
- Average Diameter of the Colony (Pyricularia grisea; 1 mg/mL): 4.63 cm
- inhibition at 1000 µg/mL (Pyricularia grisea; read-out: Inhibition Rate): 48.6%
- Average Diameter of the Colony (Phytophthora infestans [13]): 0.00 cm
- Relative Toxicity (Compared to Chlorothalonil) (Botrytis cinerea [14]; [22]): 2.24
- Relative Toxicity (Compared to Procymidone) (Botrytis cinerea [14]; [23]): 1.00
- EC50 (Botrytis cinerea [14]; [24]): 78.9 µg/mL (≈ 278 µM)
- EC50 (Colletotrichum capsici [15]; Colletotrichum truncatum, median inhibition concentration, read-out: EC50): 518 µg/mL (≈ 1820 µM)
- Relative Toxicity (Compared to Chlorothalonil) (Colletotrichum capsici [15]; [22]): 0.78
- Relative Toxicity (Compared to Procymidone) (Colletotrichum capsici [15]; [23]): 1.00
- Relative Toxicity (Compared to Chlorothalonil) (Exserohilum turcicum [16]; [22]): 3.92
- Relative Toxicity (Compared to Procymidone) (Exserohilum turcicum [16]; [23]): 1.00
- EC50 (Exserohilum turcicum [16]; median inhibition concentration, read-out: EC50): 105 µg/mL (≈ 369 µM)
- Relative Toxicity (Compared to Chlorothalonil) (Sclerotinia sclerotiorum [17]; [22]): 0.89
- Relative Toxicity (Compared to Procymidone) (Sclerotinia sclerotiorum [17]; [23]): 1.00
- EC50 (Sclerotinia sclerotiorum [17]; [24]): 70.6 µg/mL (≈ 248 µM)
- Relative Toxicity (Compared to Chlorothalonil) (Valsa mali [18]; [22]): 0.98
- Relative Toxicity (Compared to Procymidone) (Valsa mali [18]; [23]): 1.00
- EC50 (Valsa mali [18]; [24]): 427.3 µg/mL (≈ 1500 µM)
- Relative Toxicity (Compared to Chlorothalonil) (Fusarium graminearum [19]; [22]): 3.27
- Relative Toxicity (Compared to Procymidone) (Fusarium graminearum [19]; [23]): 1.00
- EC50 (Fusarium graminearum [19]; [24]): 144 µg/mL (≈ 505 µM)
- Relative Toxicity (Compared to Chlorothalonil) (F. graminearum [20]; [22]): 0.27
- Relative Toxicity (Compared to Procymidone) (F. graminearum [20]; [23]): 1.00
- EC50 (F. graminearum [20]; Fusarium graminearum, median inhibition concentration): 850 µg/mL (≈ 2990 µM)
- Relative Toxicity (Compared to Chlorothalonil) (Magnaporthe grisea; [22]): 1.42
- Relative Toxicity (Compared to Procymidone) (Magnaporthe grisea; [23]): 1.00
- EC50 (Magnaporthe grisea; Pyricularia oryzae, median inhibition concentration): 308 µg/mL (≈ 1080 µM)
- Relative Toxicity (Compared to Chlorothalonil) (Phytophthora infestans [21]; [22]): 0.15
- Relative Toxicity (Compared to Procymidone) (Phytophthora infestans [21]; [23]): 1.00
- EC50 (Phytophthora infestans [21]; [24]): 778 µg/mL (≈ 2740 µM)
